Measurements taken from patent US8722745B2, “Sulfur-containing compound, method of preparation and pharmaceutical uses thereof” (National Sun Yat-Sen University, priority 2007, dated 2014).

Assays:
[1] = tested on: β-actin; experiment: Protein expression of β-actin (internal control) in LPS-stimulated RAW 264.7 macrophages; type: cell-based, mouse; conditions: 50 μM compound
Method: (§1) A mouse macrophage cell line, RAW 264.7, purchased from the American Type Culture Collection (ATCC , No TIB-71) was chosen in the in vitro model. The cells were cultured in DMEM (Dulcbecco/s Modified Eagle medium) containing 10% fetal bovine serum (FBS) and penicillin G (100 U/mL) and streptomycin (100 μg/mL) at 37° C. and 5% CO2. When reaching 80% confluence, the cells were subcultured with trypsin. The cells were subjected to an anti-inflammation assay after subcultured for 36 hours. 3×10^6 RAW264.7 cells were cultured in a 10-cm culture dish and administered with lipopolysaccharide (LPS, 0.01 μg/mL; Sigma L2654). After 16 hours, the cells were collected. […]
(§2) The collected RAW264.7 cells were dissolved with 200 μL of 4° C. lysis buffer (50 mM Tris [pH 7.5], 150 mM NaCl, 1% TritonX-100, 0.1 mM EDTA, 0.1 mM EGTA, 10 μg PMSF, 1 μg/mL aprotinin, 20 mM NaF, and 0.2 mM Na3VO4). […] The supernatant was assayed with Bio-Rad DC protein assay kit (Bio-Rad Laboratories, Hercules, Calif., USA) and the absorbance was read with an ELISA reader (Thermo Electron Corporation, USA) for estimating the protein contents. […] After washed with TTBS for three times, an enhanced chemiluminescence detection kit was used for reading with the PVDF membrane and exposed with an X-ray film (Kodak X-OMAT LS, Kodak, Rochester, N.Y., USA) for detecting the protein expression. […]

[2] = tested on: thermal hyperalgesia after sciatic nerve chronic constriction injury; experiment: Neuropathic pain model, sciatic nerve chronic constriction injury, thermal hyperalgesia; type: in vivo, rat
Method: The operation was performed according to the description of Wen et al, Brain Res 963:1-7, 2003. The dura mater of male Wistar rats was opened near the foramen magnum and planted with an 8.5-cm PE tube (outer diameter: 0.014 inches, inner diameter: 0.008 inches). The drugs worked near the lumbar, and the end of injection was fixed on the head. Animals those had deficient in motor or blood in the intrathecal catheter were abandoned.
The model was established similar to the sciatic nerve chronic constriction injury (CCI) established by Bennett and Xie (Pain 33:87-107, 1988). 4-O cat cut line was used to tie four nodes on the sciatic nerve. After one week, the behavior of thermal hyperalgesia was stimulated. The behavior of thermal hyperalgesia was assayed similar to the method established by Hargreaves et al (Pain 32:77-88, 1988) and recorded with an analgesiometer (IITC Inc., Woodland Hills, Calif., USA) for assessing the effect of the compound represented by formula 3 on neuropathic pain relief.
MPE(%)=(latency after drug administered−basal latency)/(30 seconds−basal latency)×100%
If a higher MPE was obtained, the effect of pain relief was better, and the maximum value of MPE was 100.

[3] = tested on: cyclooxygenase-2; experiment: Protein expression of cyclooxygenase-2 in LPS-stimulated RAW 264.7 macrophages (Western blot); type: cell-based, mouse
Method: as §1, §2

[4] = tested on: neointimal proliferation of the carotid artery; experiment: Atherosclerosis model in rat, balloon-induced angioplasty of carotid artery; type: in vivo
Method: The operation was performed according to the references of Berger et al (Atherosclerosis 175:229-234, 2004) and Chen et al (Naunyn Schmiedebergs Arch Pharmacol 368:127-133, 2003). The animals were anesthetized with 2.5% isoflurane (mixed air and oxygen of 1:1) with a 2F probe balloon catheter. The catheter was pre-filled with saline solution and positioned from the external carotid artery of the right neck into the right common carotid artery. When the catheter entered about 1.5 cm of the right common carotid artery, the balloon was inflated and rubbed forward and backward three times. Then, the catheter was removed and the external carotid artery was ligated and the incision was sutured. […] The samples were observed under an optical microscopy and photoed. The thickness of neointimal proliferation was determined. The right side of each rat was taken as the experiment group and the left side was as the control group.
In the experiment group, the compound represented by formula 3 was administered.

[5] = tested on: inducible nitric oxide synthase; experiment: Protein expression of inducible nitric oxide synthase in LPS-stimulated RAW 264.7 macrophages (Western blot); type: cell-based, mouse
Method: as §1, §2

[6] = tested on: multiple sclerosis (EAE); experiment: Multiple sclerosis (EAE) animal model, neural function score; type: in vivo
Method: Female Lewis rats weighted between 280 to 300 g were used in the multiple sclerosis (MS, also called Encephalomyelitis; EAE) model (Boulerne et al, J Neurosci. 2002; 22:123-32, 2004). The animals were anesthetized with 2.5% isoflurane, and 50 μL of Complete Freund's Adjuvant (Sigma) containing 1 mg inactivated Mycobacterium tuberculosis H37Ra and 50 μg guinea pig myelin basic protein (MBP) was subcutaneous injected from the posterior paw for 100% immunizing In the control group, the rats were injected with Freund's complete adjuvant containing inactivated Mycobacterium tuberculosis H37Ra and without guinea pig myelin basic protein. The ill was observed on day 11 to 12 after immunization, and reached the peak on day 14 to 15.
The neural function was assessed on day 15. The scores represents: 0: no clinical symptom; 1: function loss in the tail; 2: partial paralysis in the posterior limbs; 3: complete paralysis in the posterior limbs; 4: paralysis in the four limbs; 5: complete paralysis in the whole body; 6: death (Liu et al. J Neuroimmunol. 2003; 139:27-35, 1998).
The rats were divided into four groups, and each group containing four animals: • Control group: Rats were subcutaneous injected from the posterior paw with Freund's complete adjuvant containing inactivated Mycobacterium tuberculosis H37Ra and without guinea pig myelin basic protein. 20 μL of normal saline was administered through the intrathecal catheter twice a day for five days from day 7. • Multiple sclerosis group: Rats were subcutaneous injected from the posterior paw with Freund's complete adjuvant containing inactivated Mycobacterium tuberculosis H37Ra and guinea pig myelin basic protein. 20 μL of normal saline was administered through the intrathecal catheter twice a day for five days from day 7. • Multiple sclerosis with treatment group: Rats were subcutaneous injected from the posterior paw with Freund's complete adjuvant containing inactivated Mycobacterium tuberculosis H37Ra and guinea pig myelin basic protein. […]

SMILES: CC(=O)CCS(=O)(=O)CCO [formula 3]
- effect on protein expression of β-actin [1]: inhibits the protein expression of β-actin
- 50% effective dose (ED50) calculated from MPE ([2]; intrathecal injection, CCI rats, paw withdrawal latency): 0.75 ± 0.05 µg
- thermal hyperalgesia inhibition ([2]; intrathecal injections of 0.1, 0.5, 1, or 5 μg): significant effect on thermal hyperalgesia inhibition
- inhibition of cyclooxygenase-2 of macrophages ([3]; 5 to 30 μM compound, LPS 0.01 μg/mL): significantly inhibits
- IC50 ([3]; RAW 264.7 macrophages stimulated by LPS 0.01 μg/mL, 16 hours, protein expression): 32.1 ± 8.1 µM
- neointimal proliferation (preliminary result) ([4]; administered once a day): significantly improved
- atherosclerosis, numeralized intima/media ([4]; hypodermic injection 3 mg/kg a day from day 10 to 24 after operation): improves atherosclerosis significantly
- neointimal proliferation stimulated by balloon-induced angioplasty ([4]; hypodermic injection 3 mg/kg a day from day 10 to 24 after operation, slices on day 24): improves the neointimal proliferation
- inhibition of inducible nitric oxide synthase of macrophages ([5]; 10 to 30 μM compound, LPS 0.01 μg/mL): significantly inhibits
- IC50 ([5]; RAW 264.7 macrophages stimulated by LPS 0.01 μg/mL, 16 hours, protein expression, read-out: 50% inhibition concentration (IC50), inducible nitric oxide synthase): 3.64 ± 0.28 µM
- neural function score (0-6), multiple sclerosis with treatment group ([6]; 10 μg/20 μL intrathecal twice a day for five days from day 7, assessed on day 15, female Lewis rats): 0.5±0.3
- progress of multiple sclerosis ([6]; administered through the intrathecal catheter): significantly represses the progress of multiple sclerosis
- neural function score (0-6), normal rats with treatment group ([6]; normal rats, 10 μg/20 μL intrathecal twice a day for five days from day 7): 0
